Assay results: patent US10857113B2, “Bezafibrate for the treatment of cancer” (Cipla Limited, priority 2016, dated 2020)

System: A498 cells
Assay: In vivo animal efficacy study, subcutaneous tumor fragment xenograft
Parameters: species or system female athymic nude mice
Settings: sunitinib 20 mg/kg, bezafibrate 150 mg/kg, p.o. q.d. × 21
Description: Healthy 10 female athymic nude mice were recruited for the donor cell inoculation. Animals were subcutaneously injected at flank region with 10 million A498 cells suspended in 200 μl of media and matrigel. Animals were monitored for solid tumor growth. […] Tumors were fragmented in to ˜30 mg size. […] [table] The tumor sizes were measured weekly twice from the date of tumor appearance till the end of the experiment. Tumor size was measured by digital vernier caliper (MITUTOYO) by measuring length (L=longest axis) and width (W=shortest axis). Tumor Volume (V) was calculated using formula: […] Mean tumor volume and % tumor growth inhibition (% TGI) were then calculated (SEM=standard error of mean).

CCN(CC)CCNC(=O)c1c(C)[nH]c(/C=C2\C(=O)Nc3ccc(F)cc32)c1C [Sunitinib]
Tumor Growth Inhibition (Day 1): 1.47% | Tumor Volume, Mean (Day 1): 145.40 mm^3 | Tumor Growth Inhibition (Day 6): 47.31% | Tumor Volume, Mean (Day 6): 174.90 mm^3 | Tumor Growth Inhibition (Day 9): 43.52% | Tumor Volume, Mean (Day 9): 261.95 mm^3 | Tumor Growth Inhibition (Day 13): 44.80% | Tumor Volume, Mean (Day 13): 340.62 mm^3 | Tumor Growth Inhibition (Day 16): 53.39% | Tumor Volume, Mean (Day 16): 448.05 mm^3 | Tumor Growth Inhibition (Day 20): 50.78% | Tumor Volume, Mean (Day 20): 630.25 mm^3
